In patent publication US20260297060A1, “COMPOUNDS FOR THE DEGRADATION OF MUTANT BRAF” (C4 THERAPEUTICS, INC., priority 2023, published 2026):

Tested on: A375 human melanoma xenografts
Assay: In vivo therapeutic efficacy in A375 human melanoma xenografts (tumor volume, T/C, TGI), Example 14
Parameters: species or system human tumor in female BALB/c nude mice
Protocol: Agents were tested in the A375 human melanoma xenografts. Compound 26 and Compound 141 were administered to BALB/c nude mice bearing A375 tumors from PG-DO and dosed via PO twice a day (BID) or third a day (TIP) or dosed P daily (QD) from PG-D. Dabrafenib was administered to BALB/c nude mice bearing A375 tumors from PG-D1 and dosed via P daily (QD). Compound 26 was dosed at 1.5 mg/kg (QD), 2 mg/kg (TID), 3 mg/kg (BID), 6 mg/kg (QD) and 10 mg/kg (BID) for 21 days. Compound 141 was dosed at 0.75 mg/kg (BID), 1 mg/kg (TID), 1.5 mg/kg (BID), 3 mg/kg (QD) and 5 mg/kg (BID) for 21 days. Dabrafenib was dosed at 100 mg/kg for 21 days. This study was non-GLP.
One hundred and thirty-eight female BALB/c nude Mus Musculus mice procured from Shanghai Lingchang Biological Science and Technology Co., LTD between the ages of six to eight weeks and with body weight between eighteen and twenty-two grams were used for the study. A spare mouse was also procured.
The A375 tumor cells were maintained in vitro in DMEM medium supplemented with 10% fetal bovine serum and 1% Penicillin-Streptomycin at 37° C. in an atmosphere of 5% CO2 in air. The tumor cells were routinely sub-cultured twice weekly. The cells growing in an exponential growth phase were harvested and counted for tumor inoculation.
Each mouse was inoculated subcutaneously at the right flank with A375 cells (5×10^6) in 0.2 mL of PBS supplemented with Matrigel (PBS: Matrigel=1:1) for tumor development. Animals were grouped for efficacy study on day 15 after tumor inoculation when the average tumor volume reached 220 mm^3. The test articles administration and the animal numbers in each group are shown in the above experimental Table 75.
At the time of routine monitoring, the animals were checked daily for any effects of tumor growth and treatments on normal behavior such as mobility, food and water consumption (by looking only), body weight gain/loss (body weights were measured twice weekly), eye/hair matting and any other abnormal effect as stated in the protocol. Death and observed clinical signs were recorded on the basis of the numbers of animals within each subset.
Prior to the onset of drug treatment, mice were measured for tumor size in two dimensions using a caliper, and the tumor volume (mm^3) was calculated using formula V=0.5 a×b^2 where a and b are the long and short diameters of the tumor in mm, respectively. Mice were randomized into different treatment groups based on the tumor volume.
The major endpoint was to see if the tumor growth could be delayed or mice could be cured. The tumor size was then used for calculations of T/C value. The T/C value (in percent) is an indication of antitumor effectiveness; T and C are the mean volumes of the treated and control groups, respectively on specified day.
TGI was calculated for each group using the formula: TGI (%)=[1−(Ti−T0)/(Ci−C0)]×100; Ti is the average tumor volume of a treatment group on a given day, T0 is the average tumor volume of the treatment group on the day of treatment start, Ci is the average tumor volume of the vehicle control group on the same day with Ti, and C0 is the average tumor volume of the vehicle group on the day of treatment start.
A one-way ANOVA followed by Dunnett's multiple comparison test was performed to compare tumor volume among vehicle group (Group 1) and treatment groups (Group 2-Group 12). All data were analyzed using GraphPad Prism, ns indicates p>0.05, * indicates p<0.05, ** indicates p<0.01, *** indicates p<0.001 and **** indicates p<0.0001.
Tumor growth inhibition of Compound 26, Compound 141 and dabrafenib in the treatment of female BALB/c nude mice bearing A375 xenografts was calculated based on tumor volume measured on […]. TGI and T/C were calculated respectively and the data are detailed in Table 82.

[1] = 2 mg/kg p.o. TID × 21 days, PG-D21

Question: For CCN(C)S(=O)(=O)Nc1ccc(F)c(Oc2ccc3ncn([C@H]4COC5(CCN(C6CC7(C6)CN(c6cc8c(cc6F)c(N6CCC(=O)NC6=O)nn8C)C7)CC5)C4)c(=O)c3c2)c1C#N [Compound 26, (3R)-3-[6-[2-cyano-3-[[ethyl(methyl)sulfamoyl]amino]-6-fluoro-phenoxy]-4-oxo-quinazolin-3-yl]-8-[2-[3-(2,4-dioxohexahydropyrimidin-1-yl)-5-fluoro-1-methyl-indazol-6-yl]-2-azaspiro[3.3]heptan-6-yl]-1-oxa-8-azaspiro[4.5]decane], which Tumor volume (1.5 mg/kg p.o. BID x 21 days, day 0, mean ± SEM) is on record?
Answer: 220 ± 16 mm^3

Question: What about the Tumor volume (1.5 mg/kg p.o. BID x 21 days, day 4, mean ± SEM) of the same compound?
Answer: 249 ± 21 mm^3

Question: What about the Tumor volume (1.5 mg/kg p.o. BID x 21 days, day 7, mean ± SEM) of the same compound?
Answer: 227 ± 23 mm^3

Question: And the Tumor volume (1.5 mg/kg p.o. BID x 21 days, day 11, mean ± SEM)?
Answer: 210 ± 26 mm^3

Question: What about the Tumor volume (1.5 mg/kg p.o. BID x 21 days, day 14, mean ± SEM) of the same compound?
Answer: 204 ± 26 mm^3

Question: What about the Tumor volume (1.5 mg/kg p.o. BID x 21 days, day 18, mean ± SEM) of the same compound?
Answer: 271 ± 44 mm^3

Question: What about the Tumor volume (1.5 mg/kg p.o. BID x 21 days, day 21, mean ± SEM) of the same compound?
Answer: 400 ± 70 mm^3

Question: And the Tumor volume (1.5 mg/kg p.o. BID x 21 days, day 25 (dosing-free regrowth), mean ± SEM)?
Answer: 730 ± 94 mm^3

Question: And the Tumor volume (1.5 mg/kg p.o. BID x 21 days, day 28 (dosing-free regrowth), mean ± SEM)?
Answer: 1006 ± 99 mm^3

Question: And the Tumor volume (1.5 mg/kg p.o. BID x 21 days, day 32 (dosing-free regrowth), mean ± SEM)?
Answer: 1224 ± 99 mm^3

Question: What about the Tumor volume (1.5 mg/kg p.o. BID x 21 days, day 35 (dosing-free regrowth), mean ± SEM) of the same compound?
Answer: 1497 ± 94 mm^3

Question: And the Tumor volume (1.5 mg/kg p.o. BID x 21 days, day 39 (dosing-free regrowth), mean ± SEM)?
Answer: 1978 ± 148 mm^3

Question: What about the Tumor volume (1.5 mg/kg p.o. BID x 21 days, day 42 (dosing-free regrowth), mean ± SEM) of the same compound?
Answer: 2420 ± 205 mm^3

Question: And the Tumor volume (1.5 mg/kg p.o. BID x 21 days, day 46 (dosing-free regrowth), mean ± SEM)?
Answer: 2759 ± 274 mm^3

Question: What about the Tumor volume (1.5 mg/kg p.o. BID x 21 days, day 49 (dosing-free regrowth), mean ± SEM) of the same compound?
Answer: 2514 ± 268 mm^3

Question: And the Tumor volume (1.5 mg/kg p.o. BID x 21 days, day 53 (dosing-free regrowth), mean ± SEM)?
Answer: 3087 ± 444 mm^3

Question: What about the Tumor volume (1.5 mg/kg p.o. BID x 21 days, day 56 (dosing-free regrowth)) of the same compound?
Answer: 3153 mm^3

Question: What about the Tumor volume (2 mg/kg p.o. TID x 21 days, day 0, mean ± SEM) of the same compound?
Answer: 220 ± 15 mm^3

Question: What about the Tumor volume (2 mg/kg p.o. TID x 21 days, day 4, mean ± SEM) of the same compound?
Answer: 172 ± 13 mm^3

Question: What about the Tumor volume (2 mg/kg p.o. TID x 21 days, day 7, mean ± SEM) of the same compound?
Answer: 99 ± 9 mm^3

Question: What about the Tumor volume (2 mg/kg p.o. TID x 21 days, day 11, mean ± SEM) of the same compound?
Answer: 68 ± 8 mm^3

Question: What about the Tumor volume (2 mg/kg p.o. TID x 21 days, day 14, mean ± SEM) of the same compound?
Answer: 51 ± 7 mm^3

Question: What about the Tumor volume (2 mg/kg p.o. TID x 21 days, day 18, mean ± SEM) of the same compound?
Answer: 36 ± 4 mm^3

Question: And the Tumor volume (2 mg/kg p.o. TID x 21 days, day 21, mean ± SEM)?
Answer: 41 ± 5 mm^3

Question: And the Tumor volume (2 mg/kg p.o. TID x 21 days, day 25 (dosing-free regrowth), mean ± SEM)?
Answer: 85 ± 16 mm^3

Question: And the Tumor volume (2 mg/kg p.o. TID x 21 days, day 28 (dosing-free regrowth), mean ± SEM)?
Answer: 156 ± 32 mm^3

Question: What about the Tumor volume (2 mg/kg p.o. TID x 21 days, day 32 (dosing-free regrowth), mean ± SEM) of the same compound?
Answer: 292 ± 57 mm^3

Question: What about the Tumor volume (2 mg/kg p.o. TID x 21 days, day 35 (dosing-free regrowth), mean ± SEM) of the same compound?
Answer: 441 ± 86 mm^3

Question: What about the Tumor volume (2 mg/kg p.o. TID x 21 days, day 39 (dosing-free regrowth), mean ± SEM) of the same compound?
Answer: 754 ± 156 mm^3

Question: And the Tumor volume (2 mg/kg p.o. TID x 21 days, day 42 (dosing-free regrowth), mean ± SEM)?
Answer: 980 ± 198 mm^3

Question: And the Tumor volume (2 mg/kg p.o. TID x 21 days, day 46 (dosing-free regrowth), mean ± SEM)?
Answer: 1320 ± 265 mm^3

Question: And the Tumor volume (2 mg/kg p.o. TID x 21 days, day 49 (dosing-free regrowth), mean ± SEM)?
Answer: 1646 ± 332 mm^3

Question: What about the Tumor volume (2 mg/kg p.o. TID x 21 days, day 53 (dosing-free regrowth), mean ± SEM) of the same compound?
Answer: 2216 ± 435 mm^3

Question: What about the Tumor volume (2 mg/kg p.o. TID x 21 days, day 56 (dosing-free regrowth), mean ± SEM) of the same compound?
Answer: 2482 ± 579 mm^3

Question: What about the “Tumor Size on PG-D21 (Mean ± SEM)” value (2 mg/kg p.o. TID × 21 days) of the same compound?
Answer: 41 ± 5 mm^3

Question: And the T/C [1]?
Answer: 2.2%

Question: What about the TGI [1] of the same compound?
Answer: 110.8%

Question: And the Tumor volume (3 mg/kg p.o. BID x 21 days, day 0, mean ± SEM)?
Answer: 220 ± 15 mm^3

Question: And the Tumor volume (3 mg/kg p.o. BID x 21 days, day 4, mean ± SEM)?
Answer: 219 ± 16 mm^3

Question: What about the Tumor volume (3 mg/kg p.o. BID x 21 days, day 7, mean ± SEM) of the same compound?
Answer: 136 ± 11 mm^3

Question: And the Tumor volume (3 mg/kg p.o. BID x 21 days, day 11, mean ± SEM)?
Answer: 83 ± 6 mm^3

Question: What about the Tumor volume (3 mg/kg p.o. BID x 21 days, day 14, mean ± SEM) of the same compound?
Answer: 52 ± 5 mm^3

Question: What about the Tumor volume (3 mg/kg p.o. BID x 21 days, day 18, mean ± SEM) of the same compound?
Answer: 45 ± 7 mm^3

Question: And the Tumor volume (3 mg/kg p.o. BID x 21 days, day 21, mean ± SEM)?
Answer: 48 ± 9 mm^3

Question: What about the Tumor volume (3 mg/kg p.o. BID x 21 days, day 25 (dosing-free regrowth), mean ± SEM) of the same compound?
Answer: 129 ± 75 mm^3

Question: And the Tumor volume (3 mg/kg p.o. BID x 21 days, day 28 (dosing-free regrowth), mean ± SEM)?
Answer: 258 ± 165 mm^3

Question: What about the Tumor volume (3 mg/kg p.o. BID x 21 days, day 32 (dosing-free regrowth), mean ± SEM) of the same compound?
Answer: 423 ± 234 mm^3

Question: What about the Tumor volume (3 mg/kg p.o. BID x 21 days, day 35 (dosing-free regrowth), mean ± SEM) of the same compound?
Answer: 578 ± 289 mm^3

Question: What about the Tumor volume (3 mg/kg p.o. BID x 21 days, day 39 (dosing-free regrowth), mean ± SEM) of the same compound?
Answer: 878 ± 311 mm^3

Question: And the Tumor volume (3 mg/kg p.o. BID x 21 days, day 42 (dosing-free regrowth), mean ± SEM)?
Answer: 1129 ± 390 mm^3
